Several values for one entry are separate records, joined by “and”; a condition that tells them apart may be missing. Identical values can stand only once. Like-named read-outs stand apart in the source and are kept apart here.
Key:
[1] = Rat plasma protein binding of tofacitinib by equilibrium dialysis; type: in vitro ADME; details: pH 7.4
[2] = hepatic microsomes
[3] = test system: P-gp; details: ref Hussar, 2014; cited from earlier work
[4] = Tissue distribution of tofacitinib 30 min after intravenous administration; type: in vivo, rat; details: 30 min after intravenous 10 mg/kg
[5] = test system: 4% human serum albumin; details: 1 to 100 μg/mL; ref Kim et al., 2020; cited from earlier work
[6] = in vivo; details: rat, plasma, po, 20 mg/kg; for CL renal: CLR
[7] = oral 20 mg/kg; for GI24 h: remaining in gastrointestinal tract at 24 h, 20 mg/kg; for Ae0-24 h: unchanged in urine for 24 h
[8] = oral 20 mg/kg, male Sprague-Dawley rats; ref Lee and Kim, 2019; cited from earlier work
[9] = oxidation and N-demethylation; ref Dowty et al., 2014; cited from earlier work
[10] = in vitro; details: rat, intestinal microsomes, pH 7.4, CLint
[11] = type: in vivo, rat; details: for Ae0-24 h: unchanged in urine for 24 h; for clearance: CL; for CL renal: CLR; for Vd: Vss
[12] = intestinal microsomes
[13] = ref Bergan et al., 1981; cited from earlier work
[14] = test system: rats; assay: Induction of ulcerative colitis by 5% DSS in drinking water; type: in vivo, rat
[15] = test system: CYP2C11; assay: Immunoblot analysis of CYP2C11 in hepatic and intestinal microsomes of DSS rats; set-up: species or system rat
[16] = test system: CYP3A1/2; assay: Immunoblot analysis of CYP3A1/2 in hepatic and intestinal microsomes of DSS rats; set-up: species or system rat
[17] = rat, plasma, iv, 10 mg/kg, intravenous 10 mg/kg, CON rats
[18] = rat, plasma, iv, 10 mg/kg, intravenous 10 mg/kg, DSS rats

C[C@@H]1CCN(C(=O)CC#N)C[C@@H]1N(C)c1ncnc2[nH]ccc12 [tofacitinib, Tofacitinib]
fraction unbound at 24 h, 10 μg/mL ([1]; fresh plasma from CON and DSS rats): 0.606 to 0.626
fraction unbound at 24 h, 10 μg/mL ([1]; fresh plasma from CON rats): 0.606
fraction unbound at 24 h, 10 μg/mL ([1]; fresh plasma from DSS rats): 0.626
Decrease of CLint in DSS rats compared with CON rats [2]: 75.5%
Km, DSS versus CON rats [2]: comparable
P-gp substrate status [3]: substrate of P-gp
Concentrations in stomach, small intestine and mesentery, DSS versus CON rats [4]: significantly higher
Plasma concentration, DSS versus CON group [4]: significantly higher
Distribution in rat tissues ([4]; both groups): widely distributed
Concentration dependence of binding to 4% human serum albumin [5]: independent of tofacitinib concentrations
AUC ([6]; CON rats (n=6)): 2650 ng·h/mL
AUC ([6]; DSS rats (n=6)): 4920 ng·h/mL
CL renal ([6]; CON rats): 5.47 ± 4.05 mL/min/kg
CL renal ([6]; DSS rats): 1.97 ± 1.14 mL/min/kg
Cmax ([6]; CON rats): 2360 ± 587 ng/mL
Cmax ([6]; DSS rats): 2460 ± 1050 ng/mL
Tmax ([6]; CON rats): 19.2 min
Tmax ([6]; DSS rats): 25 min
Decrease of CLR in DSS rats compared with CON rats [7]: 64.0%
Increase of AUC in DSS rats compared with CON rats [7]: 85.5%
GI24 h ([7]; CON rats): 0.124 % of dose and 0.124 ± 0.141 % of dose
Ae0-24 h ([7]; CON rats): 4.13 ± 2.71 % of dose
GI24 h ([7]; DSS rats): 1.10 % of dose and 1.10 ± 0.782 % of dose
Ae0-24 h ([7]; DSS rats): 2.40 ± 1.26 % of dose
F [8]: 29.1%
Fraction metabolized by hepatic CYP3A4 and CYP2C19 [9]: approximately 70%
microsomal CLint ([10]; CON rats): 5.81 µL/min/mg
microsomal CLint ([10]; DSS rats): 3.54 µL/min/mg
Decrease of CL in DSS rats compared with CON rats ([11]; intravenous 10 mg/kg): 47.7%
Decrease of CLNR in DSS rats compared with CON rats ([11]; intravenous 10 mg/kg): 45.3%
Decrease of CLR in DSS rats compared with CON rats ([11]; intravenous 10 mg/kg): 77.6%
Decrease of Vss in DSS rats compared with CON rats ([11]; intravenous 10 mg/kg): 43.2%
Increase of AUC in DSS rats compared with CON rats ([11]; intravenous 10 mg/kg): 92.3%
CLNR ([11]; intravenous 10 mg/kg, CON rats): 34.0 ± 5.54 mL/min/kg
Ae0-24 h ([11]; intravenous 10 mg/kg, CON rats): 3.97 ± 2.93 % of dose
CLNR ([11]; intravenous 10 mg/kg, DSS rats): 18.6 ± 1.65 mL/min/kg
Ae0-24 h ([11]; intravenous 10 mg/kg, DSS rats): 2.73 ± 1.89 % of dose
CLR′ (CLR recalculated from free fraction in plasma) ([11]; intravenous, CON rats): 5.07 mL/min/kg
Contribution of CLR to CL ([11]; intravenous, CON rats): 8.27%
CLR′ (CLR recalculated from free fraction in plasma) ([11]; intravenous, DSS rats): 1.10 mL/min/kg
Contribution of CLR to CL ([11]; intravenous, DSS rats): 3.55%
GI24 h ([11]; intravenous, both CON and DSS rats): less than 0.484 % of the intravenous dose
half-life ([11]; rat, plasma, iv, 10 mg/kg): 31 ± 5.36 min
AUC ([11]; rat, plasma, iv, 10 mg/kg, intravenous 10 mg/kg, CON rats (n=7)): 4520 ng·h/mL
AUC ([11]; rat, plasma, iv, 10 mg/kg, intravenous 10 mg/kg, DSS rats (n=6)): 8680 ng·h/mL
clearance [11, 17]: 37.1 ± 5.68 mL/min/kg
clearance [11, 18]: 19.4 ± 2.26 mL/min/kg
CL renal [11, 17]: 3.07 ± 1.4 mL/min/kg
CL renal [11, 18]: 0.688 ± 0.149 mL/min/kg
MRT [11, 17]: 20.3 min
MRT [11, 18]: 31.9 min
Vd [11, 17]: 0.767 ± 0.286 L/kg
Vd [11, 18]: 0.436 ± 0.164 L/kg
Km, DSS versus CON rats [12]: comparable
Decrease of CLint in DSS rats compared with CON rats ([12]; p=0.0679): 39.1%

Cc1ncc([N+](=O)[O-])n1CCO [metronidazole]
Increase of plasma concentration in patients with ulcerative colitis [13]: 50%

dextran sulfate sodium [DSS]
Decrease in colon length compared to CON rats ([14]; 5% DSS (w/v) in drinking water for 10 days): 49.0%
Body weight decrease ([14]; 5% DSS (w/v) in drinking water for 10 days, DSS rats): 1.14%
CLCR ([14]; DSS rats): 2.68 mL/min/kg
Decrease of plasma albumin ([14]; DSS rats versus CON rats): 15.8%
Increase of urea nitrogen ([14]; DSS rats versus CON rats): 86.4%
Decrease in protein expression of CYP2C11 ([15]; intestine of DSS rats): 78.5%
Decrease in protein expression of CYP2C11 ([15]; liver of DSS rats): 43.3%
Decrease in protein expression of CYP3A1/2 ([16]; intestine of DSS rats): 99.3%
Decrease in protein expression of CYP3A1/2 ([16]; liver of DSS rats): 80.1%

Source: article PMC9622310 (Biomolecules & Therapeutics, 2022)
